Series [1] has as its target DHPS (Staphylococcus aureus, UniProt O05701). The series can be described thus: HPPK-DHPS-DHFR coupled assay. As to conditions: concentration of 80 μM. It is filed as biochemical.
Series [2] relates to S. aureus NfsB. The series is classed as biochemical. As to conditions: NADH 40 μM, substrate varied, Michaelis-Menten fit.
Description: F-ENB, F-NB and F-NAP by NfsB was performed in 50 mM Tris-HCl buffer (pH 7.4) containing 5 mM EDTA, and 40 μM NADH in a total reaction volume of 500 μL. The reaction was initiated by adding enzyme (22 nM) and the consumption of NADH was monitored at 340 nm. […] Initial velocities as a function of substrate concentration were fitted to the Michaelis-Menten equation using GraphPad Prism 4. Each experiment was performed in triplicate and all the data points were included when the data were fit by the Michaelis-Menten equation.
The nitroreductase assay was performed at room temperature in 50 mM Tris-HCl buffer, pH 7.4, containing 5 mM EDTA in a total reaction volume of 500 μL. Reactions were initiated by the addition of NfsB to a final concentration of 45 nM, and the consumption of NADH was continuously monitored at 340 nm. […] The experiments were performed in triplicate and the initial velocities as a function of substrate concentration were globally fit to the Michaelis-Menten equation using GraphPad Prism 4.
Series [3] has as its system S. aureus Xen29. The series can be described thus: Rescue of sulfamethoxazole antibacterial effect (MIC, microbroth dilution in M9 media). It is filed as cell-based. The method, then:
FIG. 13. Impact of PABA analogues on the antibacterial activity of sulfamethoxazole (SMX).
Antibacterial susceptibility tests for aerobically growing bacteria were performed with a modified microbroth dilution assay according to the Clinical and Laboratory Standard Institute in transparent 96-well plates (CLSI. 2006). S. aureus Xen29 (PerkinElmer) were utilized in this study. Briefly, bacteria were grown to mid log phase (OD600 of 0.6-0.7) in cation-adjusted Mueller-Hinton (CAMH) media at 37° C. in an orbital shaker. Subsequently, bacteria were resuspended in the M9 media. A final concentration of 10^6 CFU/mL per well was added to M9 media (1% glucose, 1% casamino acids, 1 mM thiamine, 0.05 mM nicotinamide, 2 mM MgCl2, 0.1 mM CaCl2) containing 2-fold dilutions of SMX to give final concentrations ranging from 0.05 to 100 μg/mL either alone or in the presence of PABA (0.8 μg/mL and 4 μg/mL), F-PABA (0.8 μg/mL and 4 μg/mL), F-NB (10 μg/mL, 20 μg/mL and 40 μg/mL), or F-NAP (10 μg/mL, 20 μg/mL and 40 μg/mL). The plate was examined for bacteria growth using a UV-vis plate reader after 24 h incubation at 37° C. The MIC was recorded as the lowest SMX concentration (μM) required to inhibit at least 90% of bacterial growth as judged by the absorbance of the culture media.
In general terms: In broth dilution the organism is exposed to a series of concentrations in liquid medium.

The test system of series [4] is bacterial cells. The series can be described thus: MIC / toxicity of F-PABA. It is filed as cell-based.
In series [5] the test system is S. aureus Newman. The experiment in a line: PET/CT imaging of rat triceps infection / sterile inflammation model (S. aureus Newman). The series is classed as in vivo, Sprague-Dawley rats. The settings on record: 60-80 min after tracer injection. As for the experimental part: FIG. 3. PET/CT imaging of a rat model of S. aureus Newman-induced triceps infection. (A) [^18F]FDG PET/CT of a rat in which 8.2±0.2 log10 CFU of S. aureus Newman has been injected into the right triceps (red arrow) and with sterile inflammation in the left triceps (yellow arrow). The image was acquired 60-80 min after tracer injection. (B) Comparison of [18F]FDG accumulation 60-80 min postinjection at sites of infection and sterile inflammation, represented as % injected dose per cc (% ID/cc). […] (D) Comparison of 2-[^18F]F-ENB accumulation in the infected triceps and inflamed triceps 180-200 min after tracer injection: ***P<0.001 from a two-tailed Mann-Whitney U Test (n=7). (E) Ex vivo PET imaging of the excised infected triceps. The area of infection is highlighted in yellow. […]
(§1) S. aureus (Newman or Xen29) was cultured overnight by inoculating 5 μL of bacteria from a glycerol stock into 10 mL of fresh cation-adjusted Mueller-Hinton (CAMH) broth or tryptic soy broth (TSB). […] After imaging, the infected triceps were collected, homogenized in PBS using a hand-held homogenizer, and the bacterial burden at the time of imaging was determined by plating the muscle tissues onto solid MH medium. After overnight incubation at 37° C., CFUs were quantified by enumeration. […]

Series [6] deals with S. aureus Xen29. The experiment in a line: PET/CT imaging of rat triceps infection / sterile inflammation model (S. aureus Xen29). The series is classed as in vivo, Sprague-Dawley rats. As for the experimental part: FIG. 5. PET/CT imaging of rats infected in the right triceps with the bioluminescent Xen29 strain of S. aureus. (A) Experimental design. (B) 2-[^18F]F-ENB-derived radioactivity accumulates in the infected triceps (red arrow) but not the inflamed triceps (yellow arrow) at 3 h post tracer administration.
FIG. 8. PET/CT imaging of 2-[^18F]F-NB in a rat model of S. aureus Xen29 infection. (A) Radiosynthesis of 2-[^18F]F-NB. (i) [^18F]potassium fluoride, Kryptofix222, potassium carbonate, dimethyl sulfoxide, r.t., 10 min; (ii) 2 M potassium hydroxide in H2O, 105° C., 10 min; Overall decay-corrected radiochemical yield: 26% (n=1).
FIG. 10. Time activity curve (TAC) in infected triceps, inflamed triceps and blood and biodistribution of 2-[^18F]F-NB in major organs. (a) The right triceps of the rats were infected with S. aureus Xen 29 and the left triceps were injected with a 10-fold higher burden of heat-killed S. aureus to induce sterile inflammation. The rats were scanned by PET/CT for 120 min (rats with sterile inflammation in the left triceps) immediately starting from tracer administration. The PET scan was separated into ten frames (1-min) and twenty-two frames (5-min). TACs of infected triceps (blue), inflamed triceps (grey) and blood (left heart ventricle, red) are shown. Data represented as mean with standard error of the mean (n=4). (b) Time-dependent accumulation of 2-[^18F]F-NB in infected and inflamed triceps compared to the blood (left heart ventricle). Data are presented as the mean and standard error of the mean (n=4). […]
as §1

In series [7] the test system is S. aureus Newman. The experiment in a line: In vitro cellular uptake of radiotracer. The settings on record: 1 μCi/mL, 120 min incubation, versus heat killed bacteria. It is filed as cell-based. As for the experimental part:
(§2) FIG. 12. In vitro 2-[^18F]F-NB uptake by S. aureus Newman and Xen29. 1 μCi of 2-[^18F]F-NB was incubated in a 1 mL culture of S. aureus Newman (green bars) or S. aureus Xen29 (blue bars) for 5, 30, 60, 90 and 120 min.
(§3) S. aureus Newman and S. aureus Xen29 were aerobically grown to OD600 0.6 in LB media at 37° C. To evaluate the uptake of 2-[^18F]F-NB, the bacteria were incubated with 1 μCi/mL of the radiotracer at 37° C. with rapid agitation. Heat-killed (90° C. for 30 min) bacteria were similarly incubated with 2-[^18F]FNB. Aliquots (1 mL) were removed after 5, 30, 60, 90, and 120 min and pelleted by centrifugation (11 000 rpm, 3 min) and washed three times with cold phosphate buffered saline (PBS). Total radioactivity was measured using an automated gamma counter and is reported as the percentage of radioactivity added to the culture. A minimum of five replicates were used for each assay and time point.

The subject of series [8] is S. aureus Xen29. The series can be described thus: In vitro cellular uptake of radiotracer. The series is classed as cell-based. The settings on record: 1 μCi/mL, 120 min incubation, versus heat killed bacteria. The method, then: as §2, §3

The structures appear in SMILES notation.

Chain of DHPS (O05701 whole entry): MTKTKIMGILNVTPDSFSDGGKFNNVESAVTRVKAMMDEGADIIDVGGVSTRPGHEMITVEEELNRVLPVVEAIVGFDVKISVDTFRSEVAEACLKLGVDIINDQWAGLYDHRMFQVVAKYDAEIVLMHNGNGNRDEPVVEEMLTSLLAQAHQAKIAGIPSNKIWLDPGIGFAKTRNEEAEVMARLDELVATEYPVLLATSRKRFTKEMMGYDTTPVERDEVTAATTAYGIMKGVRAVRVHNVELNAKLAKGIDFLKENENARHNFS

With `CC(=O)c1ccc(N)cc1F` [2-fluoro-4-aminoacetophenone, 2-Fluoro-4-aminoacetophenone], the “substrate for DHPS” value in series [1] is listed as “not an efficient substrate for DHPS”.
`O=C(O)c1ccc([N+](=O)[O-])cc1F` [2-F-NB, 2-fluoro-p-nitrobenzoate]: the kcat in series [2] came out at 12.4 ± 1.6 s⁻¹. Moreover, in series [3], the “rescue of growth in the presence of sulfamethoxazole” value (“rescue of growth” below) was “antagonized the activity of sulfamethoxazole”. Moreover, in series [3] (40 μg/mL 2-F-NB), the “MIC of sulfamethoxazole in the presence of 40 μg/mL 2-F-NB” value was 12.5 µg/mL.
Regarding `Nc1ccc(C(=O)O)c(F)c1` [F-PABA, 2-fluoro-4-aminobenzoic acid], the “rescue of growth” value in series [3] is “rescued bacterial growth in a concentration-dependent manner”. For the same compound, in series [3] (0.8 μg/mL F-PABA), the “MIC of sulfamethoxazole in the presence of 0.8 μg/mL F-PABA” value amounted to 12.5 µg/mL and the “increase of sulfamethoxazole MIC by 0.8 μg/mL F-PABA” value came out at 8 fold. Besides, the “MIC of sulfamethoxazole in the presence of 4 μg/mL F-PABA” value in series [3] (4 μg/mL F-PABA) was “over 100 μg/mL”. Also, in series [4], the MIC is greater than 100 µg/mL and the “toxicity to bacterial or mammalian cells” value was “not toxic to either bacterial or mammalian cells”.
In the case of `Nc1ccc(C(=O)O)cc1` [PABA, p-aminobenzoic acid], the “rescue of growth” value in series [3] is listed as “bacterial regrowth in the presence of sulfamethoxazole occurred”.
The same measure, in the same setting: under `CC(=O)c1ccc([N+](=O)[O-])cc1F` [2-F-NAP, 2-fluoro-4-nitroacetophenone] stands “unable to rescue growth”.
Take `CCOC(=O)c1ccc([N+](=O)[O-])cc1F` [2-F-ENB, Ethyl 2-fluoro-4-nitrobenzoate]: the catalytic constant (kcat) in series [2] came out at 16.1 ± 1.7 s⁻¹.
With `O=C[C@H]([18F])[C@@H](O)[C@H](O)[C@H](O)CO` [[^18F]FDG, 2-Deoxy-2-[18F]fluoro-D-glucose], the “radioactivity in the infected triceps” value in series [5] is 0.8 % ID/cc. In addition, in series [5] (sterile inflammation), the “radioactivity in the inflamed triceps” value was found to be 1.2 % ID/cc.
As to `O=C(O)c1ccc([N+](=O)[O-])cc1[18F]` [2-[^18F]F-NB, 2-[^18F]F-4-nitrobenzoate], the “signal at the infection site versus site of sterile inflammation” value in series [6] (3 h post injection, ROI analysis) is given as 17 fold. Also, the “localisation of radioactive signal” value in series [6] (180 min post tracer injection) is given as “localized at the site of infection”. For the same compound, the “uptake of radiotracer by live bacteria” value in series [7] and in series [8] was “Time dependent uptake” throughout.
In the case of `Cc1cc(NS(=O)(=O)c2ccc(N)cc2)no1` [sulfamethoxazole], in series [3] (Staphylococcus aureus, XEN29, 24 h, M9 media, read-out: MIC of sulfamethoxazole alone), the MIC came out at 1.56 µg/mL.

As usually defined, the kcat is the maximal rate divided by the concentration of active sites.
